This is an account of results in PubChem BioAssay (NCI).

Each structure is given as a SMILES string.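 Compound exposure: 48 hours, 5 concentrations, 96-well plates. TGI denotes the concentration required for complete inhibition of growth.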

The test system of the first test is NCI/ADR-RES ovarian. Nature of the test: DTP human tumour cell line panel, 48 h.
For orientation: TGI means the concentration giving total growth inhibition. Higher therefore signals lower sensitivity of the cells. Consider `Cc1ccc2c(c1)nc(N)n[n+]2[O-]`, for which the TGI is over 100 µM.
With `Cc1cn(C2CC(N)C(CN)O2)c(=O)[nH]c1=O` (configuration not stated), the TGI is over 100 µM.
On the same count and under the same terms, in the case of `Nc1nc2ncc(SCc3ccc(C(=O)NC(CCC(=O)O)C(=O)O)cc3)cc2c(=O)[nH]1` (configuration not stated) it was over 100 µM.
Compound `CC(C)(C)C(=O)C(CC(=O)c1ccccc1)C(=O)C(C)(C)C` registered a TGI of over 100 µM.
In turn, `CC12CC(c3ccccc3O1)C(C(=O)Nc1ccc(F)cc1)C(=O)N2` (configuration not stated) had a TGI of over 100 µM.
Compound `O=c1c2c3ccccc3[nH]c2c2cccc3c2n1CCC3` displayed a TGI of over 100 µM.
Same read-out and setting: in the case of `c1ccc([P+](CCNCCNCC[P+](c2ccccc2)(c2ccccc2)c2ccccc2)(c2ccccc2)c2ccccc2)cc1` it was over 100 µM; in that of `CCOc1ccc(N/C(=C(/C(Cl)=C(/Cl)NCCN)[N+](=O)[O-])n2nnc3ccccc32)cc1`, over 100 µM.
The compound `O=C1CC(C(O)CO)CC(=O)N1` (configuration not stated) gave a TGI of over 100 µM.
Still for that read-out and setting: in the case of `Cc1c(Cl)ccc2c(=O)c3cccc(CC(=O)O)c3oc12` it was over 100 µM.
`C/C(=N\NC(=S)NC(C)C)c1nc2ncccc2[nH]1` returned a TGI of over 100 µM.
`Cc1c(/C=N\NC(=S)N2CCN(C(=S)N/N=C\c3c(C)n(C)n(-c4ccccc4)c3=O)CC2)c(=O)n(-c2ccccc2)n1C`: the TGI is over 100 µM.
For the compound `CCN(CC)CCn1c2cc3c(cc2c(=O)c2cccnc21)OCCO3`, the TGI was over 10 µM.
In turn, `O=C(NS(=O)(=O)Nc1ccc(Cl)cc1)OCc1ccc(Cl)cc1Cl` showed a TGI of 49.9 µM.

A further test has as its system HCT-15 colon. Kind of test: DTP human tumour cell line panel, 48 h.
Take `Cc1ccc2c(c1)nc(N)n[n+]2[O-]`: the TGI is over 100 µM.
The compound `Cc1cn(C2CC(N)C(CN)O2)c(=O)[nH]c1=O` (configuration not stated) came in with a TGI of over 100 µM.
The same measure, in the same setting: with `Nc1nc2ncc(SCc3ccc(C(=O)NC(CCC(=O)O)C(=O)O)cc3)cc2c(=O)[nH]1` (configuration not stated) the figure was over 100 µM; with `CC(C)CC(N)C(=O)OCN1C(=O)C2C3C=CC(C2C1=O)C1C2C(=O)N(COC(=O)C(N)CC(C)C)C(=O)C2C31` (configuration not stated), over 64.5 µM; with `CC(C)(C)C(=O)C(CC(=O)c1ccccc1)C(=O)C(C)(C)C`, over 100 µM.
For the compound `COC(=O)c1cc(CC(C)C)c2c(c1)[nH]c1ccccc12`, the TGI was over 100 µM.
On the same count and under the same terms, with `C[N+](C)(C)CC(=O)N/N=c1\cc(C(=O)Nc2ccc(N=O)cc2C#N)oc2cc(O)ccc12` the figure was over 100 µM; with `COc1ccc(/C(=C/n2ccnc2)C(=O)c2ccc(OC)c(OC)c2)cc1`, over 100 µM; with `O=C1CC2(C[C@@H]3CCCCCCCCC[C@@H](C3)C2)N1` (some centres not stated), 34 µM.
Same read-out and setting: with `CC(C)C(Sc1nc(-c2ccccc2)c(-c2ccccc2)[nH]1)C(=O)NNC(=S)Nc1ccccc1` (configuration not stated) the figure was 33.8 µM; with `COC1O[C@H]2CCN(C(=O)OCc3ccccc3)[C@H]2[C@H]1OCc1ccccc1` (some centres not stated), over 100 µM.
Compound `CC12CC(c3ccccc3O1)C(C(=O)Nc1ccc(F)cc1)C(=O)N2` (configuration not stated) showed a TGI of over 100 µM.
`O=c1c2c3ccccc3[nH]c2c2cccc3c2n1CCC3` came in with a TGI of over 100 µM.
Take `COc1ccc(C2C(Cl)C(=O)N2NC(=O)c2ccc(NC(C)=O)cc2)cc1` (configuration not stated): the TGI is over 100 µM.
Take `c1ccc([P+](CCNCCNCC[P+](c2ccccc2)(c2ccccc2)c2ccccc2)(c2ccccc2)c2ccccc2)cc1`: the concentration for total growth inhibition (TGI) is over 100 µM.
Compound `COc1ccc(-c2c(C#N)c(N)n(C3OC(CO)C(O)C(O)C3O)c(=S)c2C#N)cc1` (configuration not stated) came in with a TGI of over 100 µM.
In turn, `c1ccc(C[P+]2(c3ccccc3)c3ccccc3-c3ccccc32)cc1` yielded a TGI of over 100 µM.
On to `Cc1c(Cl)cccc1NC(=O)C(=O)C1C(=O)CC(C)(C)CC1=O`, for which the TGI was over 100 µM.
The same measure, in the same setting: with `O=C1O[C@@H](c2ccccc2)C[C@@H]1CN1CCOCC1` the figure was over 100 µM.
Take `CCOc1ccc(N/C(=C(/C(Cl)=C(/Cl)NCCN)[N+](=O)[O-])n2nnc3ccccc32)cc1`: the TGI was 38 µM.
`COC1(C)CC2N(C(=O)c3ccccc3)N=C(c3ccccc3)CC2(C)O1` (configuration not stated) gave a TGI of over 100 µM.
Consider `O=C1CC(C(O)CO)CC(=O)N1` (configuration not stated), for which the TGI was over 100 µM.
As to `Cc1c(Cl)ccc2c(=O)c3cccc(CC(=O)O)c3oc12`, the TGI was over 100 µM.
`C/C(=N\NC(=S)NC(C)C)c1nc2ncccc2[nH]1`: the TGI is over 100 µM.
As to `Nc1ccccc1Nc1ccccc1C(=O)[O-].Nc1ccccc1Nc1ccccc1C(=O)[O-].[Cu+2]`, the TGI is over 100 µM.
`CCOC(=O)C(OCC1CC=CCC1)Sc1ccccc1` (configuration not stated) displayed a TGI of over 100 µM.
The same measure, in the same setting: in the case of `Cc1c(/C=N\NC(=S)N2CCN(C(=S)N/N=C\c3c(C)n(C)n(-c4ccccc4)c3=O)CC2)c(=O)n(-c2ccccc2)n1C` it was over 100 µM.
Turning to `CCN(CC)CCn1c2cc3c(cc2c(=O)c2cccnc21)OCCO3`, the TGI was over 10 µM.
Still for that read-out and setting: with `O=C(NS(=O)(=O)Nc1ccc(Cl)cc1)OCc1ccc(Cl)cc1Cl` the figure was over 100 µM.

The test system of the next test is MDA-MB-435. Nature of the test: DTP human tumour cell line panel, 48 h.
`Cc1ccc2c(c1)nc(N)n[n+]2[O-]` returned a TGI of over 100 µM.
`Cc1cn(C2CC(N)C(CN)O2)c(=O)[nH]c1=O` (configuration not stated) showed a concentration for total growth inhibition (TGI) of over 100 µM.
On the same count and under the same terms, with `Nc1nc2ncc(SCc3ccc(C(=O)NC(CCC(=O)O)C(=O)O)cc3)cc2c(=O)[nH]1` (configuration not stated) the figure was over 100 µM; with `CC(C)(C)C(=O)C(CC(=O)c1ccccc1)C(=O)C(C)(C)C`, over 100 µM.
Consider `CC12CC(c3ccccc3O1)C(C(=O)Nc1ccc(F)cc1)C(=O)N2` (configuration not stated), for which the TGI was over 100 µM.
The same measure, in the same setting: in the case of `O=c1c2c3ccccc3[nH]c2c2cccc3c2n1CCC3` it was over 100 µM; in that of `c1ccc([P+](CCNCCNCC[P+](c2ccccc2)(c2ccccc2)c2ccccc2)(c2ccccc2)c2ccccc2)cc1`, over 100 µM.
Turning to `c1ccc(C[P+]2(c3ccccc3)c3ccccc3-c3ccccc32)cc1`, the TGI is over 100 µM.
As for `CCOc1ccc(N/C(=C(/C(Cl)=C(/Cl)NCCN)[N+](=O)[O-])n2nnc3ccccc32)cc1`, the TGI was over 100 µM.
The same measure, in the same setting: with `O=C1CC(C(O)CO)CC(=O)N1` (configuration not stated) the figure was over 100 µM.
Consider `Cc1c(Cl)ccc2c(=O)c3cccc(CC(=O)O)c3oc12`, for which the TGI was over 100 µM.
As for `Cc1c(/C=N\NC(=S)N2CCN(C(=S)N/N=C\c3c(C)n(C)n(-c4ccccc4)c3=O)CC2)c(=O)n(-c2ccccc2)n1C`, the TGI was determined as 64.7 µM.
The compound `CCN(CC)CCn1c2cc3c(cc2c(=O)c2cccnc21)OCCO3` registered a TGI of over 10 µM.
`O=C(NS(=O)(=O)Nc1ccc(Cl)cc1)OCc1ccc(Cl)cc1Cl` showed a TGI of 50.9 µM.

A further test has as its system IGROV1 ovarian. Nature of the test: DTP human tumour cell line panel, 48 h.
Take `Cc1ccc2c(c1)nc(N)n[n+]2[O-]`: the TGI was over 100 µM.
With `Cc1cn(C2CC(N)C(CN)O2)c(=O)[nH]c1=O` (configuration not stated), the TGI was over 100 µM.
Same read-out and setting: in the case of `Nc1nc2ncc(SCc3ccc(C(=O)NC(CCC(=O)O)C(=O)O)cc3)cc2c(=O)[nH]1` (configuration not stated) it was over 100 µM.
`CC(C)CC(N)C(=O)OCN1C(=O)C2C3C=CC(C2C1=O)C1C2C(=O)N(COC(=O)C(N)CC(C)C)C(=O)C2C31` (configuration not stated) gave a TGI of over 100 µM.
On the same count and under the same terms, with `CC(C)(C)C(=O)C(CC(=O)c1ccccc1)C(=O)C(C)(C)C` the figure was over 100 µM.
